Key:
[1] = Estimate of maximal amount of lymphatic absorbed TU; conditions: 25% of solubility x 120 mg/g x 3.5 g triglyceride/10 h; formulation of 600 mg fat
Text: The maximal amount of lymphatic absorbed TU can be estimated from the solubility of Testosterone Undecanoate in triglyceride and the transported triglyceride (Int. J. Pharm., vol. 34, 175-178, 1986).

[2] = cited from earlier work

CCCCCCCCCCC(=O)O[C@H]1CC[C@H]2[C@@H]3CCC4=CC(=O)CC[C@]4(C)[C@H]3CC[C@]12C [Testosterone Undecanoate]
maximal amount of lymphatic absorbed TU [1]: ~100 mg
solubility in triglyceride [2]: 120 mg/g

Reference: US20140179655A1, “SOLID ORAL DOSAGE FORM OF TE[…]” (Solural Pharma ApS, priority 2012, published 2014)
